Assays:
[1] = system: Daudi (Burkitt's Lymphoma); assay: Bliss excess, mean over the matrix (fraction); higher = more synergy
In short: (§1)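 Bliss excess equals the observed combination effect minus the expected value EA + EB − EA·EB, where EA and EB are the effects of each agent alone. Combination Emax is the second-highest inhibition within the matrix. Inhibition was scaled from CellTiter-Glo 2.0 luminescence, with 0 set by vehicle wells and 1 by blank wells, after 72 hours of two-drug dosing of cells plated in 1536-well plates.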

[2] = system: GRANTA-519 (B-Cell Non-Hodgkin's Lymphoma); assay: as above
In short: as §1

HT-144 (Melanoma) = assay: as above
In short: as §1

[3] = system: IGROV-1 (Ovarian Carcinoma); assay: as above
In short: as §1

[4] = system: NCI-H1048 (Small Cell Lung Carcinoma); assay: as above
In short: as §1

[5] = system: NTERA-2-cl-D1 (Other Solid Carcinomas); assay: as above
In short: as §1

[6] = system: OVKATE (Ovarian Carcinoma); assay: as above
In short: as §1

[7] = system: RS4-11 (B-Lymphoblastic Leukemia); assay: as above
In short: as §1

[8] = system: SBC-3 (Small Cell Lung Carcinoma); assay: as above
In short: as §1

SK-N-DZ (Neuroblastoma) = assay: as above
In short: as §1

[9] = system: SUP-HD1 (Hodgkin's Lymphoma); assay: as above
In short: as §1

[10] = system: TOV-21G (Ovarian Carcinoma); assay: as above
In short: as §1

[11] = system: IGROV-1 (Ovarian Carcinoma); assay: combination Emax (second highest fraction inhibited in the dose matrix, 72 h); higher = more inhibition; extreme values may be limits of the assay
In short: as §1

[12] = system: JJN-3 (Plasma Cell Myeloma); assay: as above
In short: as §1

[13] = system: NCI-H1975 (Lung Adenocarcinoma); assay: as above
In short: as §1

[14] = system: OCI-M1 (Acute Myeloid Leukemia); assay: as above
In short: as §1

[15] = system: OVKATE (Ovarian Carcinoma); assay: as above
In short: as §1

[16] = system: RPMI-8402 (T-Lymphoblastic Leukemia); assay: as above
In short: as §1

SK-MEL-24 (Melanoma) = assay: as above
In short: as §1

[17] = system: SUP-HD1 (Hodgkin's Lymphoma); assay: as above
In short: as §1

SMILES | Bliss excess [1] | Bliss excess [2] | Bliss excess (HT-144 (Melanoma)) | Bliss excess [3] | Bliss excess [4] | Bliss excess [5] | Bliss excess [6] | Bliss excess [7] | Bliss excess [8] | Bliss excess (SK-N-DZ (Neuroblastoma)) | Bliss excess [9] | Bliss excess [10] | combination Emax [11] | combination Emax [12] | combination Emax [13] | combination Emax [14] | combination Emax [15] | combination Emax [16] | combination Emax (SK-MEL-24 (Melanoma)) | combination Emax [17]
Cc1cc2ncnn2cc1Nc1ncc2c(n1)n(C1CCOCC1)c(=O)n2C [AZD7648] + CCN(CCO)CCCOc1ccc2c(Nc3cc(CC(=O)Nc4cccc(F)c4)[nH]n3)ncnc2c1 [AZD2811] (first compound max 10 µM, 7x7, partner max 1 µM) | 0.0652 | 0.0287 | 0.0088 | -0.115 | -0.0197 | 0.012 | -0.0834 | -0.0355 | 0.0455 | 0.088 | 0.0506 | 0.0183 | 0.566 | 0.308 | 0.384 | 0.237 | 0.27 | 0.886 | 0.373 | 0.434
CN(CCO)CC[C@H](CSc1ccccc1)Nc1ccc(S(=O)(=O)NC(=O)c2ccc(N3CCC([C@@H](O)c4ccccc4-c4ccc(Cl)cc4)CC3)cc2)cc1S(=O)(=O)C(F)(F)F [AZD4320] + Cc1cc2ncnn2cc1Nc1ncc2c(n1)n(C1CCOCC1)c(=O)n2C [AZD7648] (first compound max 1 µM, 7x7, partner max 10 µM) | -0.0115 | 0.0049 | -0.0122 | 0.0266 | 0.0256 | 0.0408 | -0.0269 | -0.0148 | -0.0767 | -0.0362 | 0.0039 | -0.0221 | 0.653 | 0.473 | 0.35 | 0.981 | 0.303 | 0.929 | 0.252 | 0.939
Cc1cc2ncnn2cc1Nc1ncc2c(n1)n(C1CCOCC1)c(=O)n2C [AZD7648] + O=C(c1cc(Cc2n[nH]c(=O)c3ccccc23)ccc1F)N1CCN(C(=O)C2CC2)CC1 [Olaparib] (first compound max 10 µM, 7x7, partner max 10 µM) | -0.0336 | -0.0416 | -0.0519 | -0.0782 | -0.0593 | 0.0101 | -0.0688 | -0.0831 | -0.0148 | 0.0102 | 0.0862 | -0.0363 | 0.598 | 0.256 | 0.389 | 0.173 | 0.148 | 0.561 | 0.211 | 0.465
COc1cc2c(cc1OCCCCCOc1cc3c(cc1OC)C(=O)N1C=C(C)C[C@H]1C=N3)N=C[C@@H]1CC(C)=CN1C2=O [SG3199] + O=C(c1cc(Cc2n[nH]c(=O)c3ccccc23)ccc1F)N1CCN(C(=O)C2CC2)CC1 [Olaparib] (first compound max 0.001 µM, 7x7, partner max 10 µM) | -0.0273 | -0.0226 | -0.0443 | -0.0101 | -0.0432 | -0.0586 | -0.0653 | 0.0338 | -0.0516 | -0.0199 | 0.1 | -0.0322 | 0.358 | 0.254 | 0.172 | 0.249 | 0.0519 | 0.435 | 0.129 | 0.456
C[C@@H](c1ccc2nccn2c1)n1nnc2ncc(-c3cnn(C)c3)nc21 [Savolitinib] + CC1(C)CCC(CN2CCN(c3ccc(C(=O)NS(=O)(=O)c4ccc(NCC5CCOCC5)c([N+](=O)[O-])c4)c(Oc4cnc5[nH]ccc5c4)c3)CC2)=C(c2ccc(Cl)cc2)C1 [Venetoclax] (first compound max 1 µM, 7x7, partner max 1 µM) | -0.0988 | -0.0822 | -0.0569 | -0.04 | -0.0419 | -0.0678 | -0.0495 | -0.0566 | -0.0435 | -0.0158 | 0.034 | -0.0577 | 0.152 | 0.234 | 0.126 | 0.102 | 0.155 | 0.183 | 0.154 | 0.792
Cc1nc(Nc2ncc(C(=O)Nc3c(C)cccc3Cl)s2)cc(N2CCN(CCO)CC2)n1 [Dasatinib] + CC(=O)Nc1cccc(-n2c(=O)n(C3CC3)c(=O)c3c(Nc4ccc(I)cc4F)n(C)c(=O)c(C)c32)c1 [Trametinib] (first compound max 2 µM, 7x7, partner max 1 µM) | -0.0221 | -0.0711 | -0.0825 | -0.0554 | -0.0669 | 0.0638 | -0.0147 | -0.0685 | 0.0453 | -0.0332 | -0.0782 | 0.0199 | 0.956 | 0.446 | 0.662 | 0.884 | 0.484 | 0.307 | 0.815 | 0.202

Reference: the supplement of paper PMC11061612
